# Experimental data as given in article PMC10893061, “Novel 2,5-Diketopiperazines with In Vitro Activities against Protozoan Parasites of Tropical Diseases” (Pharmaceuticals, 2024).
# Like-named read-outs stand apart in the source and are kept apart here.
# Key:
# [1] = Cytotoxicity on THP-1 derived macrophages (AlamarBlue); assay type: cell-based; settings: human, THP-1 cells differentiated into macrophages, THP-1 macrophages
# Experimental: For the cytotoxicity assay, human monocytic THP-1 cells were differentiated into macrophages in 96-well microtiter plates for 72 h, as described above. The medium was then replaced, and the cells were exposed to the compounds at increasing concentrations starting at IC50 value for each Leishmania spp. line. After 72 h of incubation with the compounds, AlamarBlue™ was added and the absorbance at 570 and 600 nm was measured after 4 h. Controls with untreated and DMSO 1%-treated cells were run in parallel. The results were expressed as the percentual difference in the reduction between treated and untreated cells. The compound concentration that inhibits 50% of the THP-1 cell viability (CC50) was determined. The CC50 values were determined by non-linear regression using a variable slope model (log(concentration) vs. growth inhibition) with the GraphPad Prism v8.2.0 (CA, USA) software. Triplicates were run in the same plate and the experiments were repeated at least once.
# [2] = tested on: Leishmania infantum (MHOM/BR/1974/PP75) in THP-1 macrophages; test: Anti-Leishmania infantum activity assay (infected THP-1 macrophages, red fluorescence); assay type: cell-based; settings: for Status: L. infantum, activity status from IC50 and SI; for IC50: Leishmania infantum, L. infantum in THP-1 macrophages, 72 h
# Experimental: (§1) Their half-maximum cytotoxic concentrations (CC50) and their selectivity indices (SI), obtained as the ratio of the cytotoxic concentration against the bioactive concentration are shown in Table 2. Theoretically, the higher the SI value, the greater the effectiveness for the target and the lower the toxicity of the compound, characterizing a potentially safe and selective drug.
# Cells derived from the human monocytic strain THP-1 were cultured in complete Rowell Park Memorial Institute (RPMI)-1640 medium (supplemented with 10% fetal bovine serum, 100 U/mL penicillin, and 100 μg/mL streptomycin). Monocytes were differentiated into macrophages by the addition of 20 ng/mL phorbol myristate acetate (PMA). […] The IC50 values were determined by non-linear regression using a variable slope model (log[concentration] vs. growth inhibition) with the GraphPad Prism v8.2.0 (Boston, MA, USA) software. Controls with uninfected cells, untreated infected cells, infected cells treated with amphotericin B at 0.25 μM (positive control) or DMSO 1% were used. Quadruplicates were run in the same plate, and the experiments were repeated at least once.
# [3] = Cytotoxicity on L929 cells (AlamarBlue); assay type: cell-based; settings: mouse, L929 mouse fibroblast cells
# Experimental: The medium was then replaced, and the cells were exposed to compounds at increasing concentrations starting at IC50 value for T. cruzi. After 96 h of incubation with the compounds, AlamarBlue^TM was added and the absorbance at 570 and 600 nm was measured after 4–6 h. Controls with untreated and DMSO 1%-treated cells were run in parallel. The results were expressed as the percent difference in the reduction between treated and untreated cells. The compound concentration that inhibits 50% of the L929 cell viability (CC50) was determined. Quadruplicates were run in the same plate and the experiments were repeated at least once.
# (§2) IC50 over T. cruzi and L929 cells were determined by linear interpolation and the selectivity index (SI) was calculated by the ratio of CC50 L929 cells/ IC50 T. cruzi.
# [4] = tested on: T. cruzi Tulahuen strain in L929 cells; test: Anti-Trypanosoma cruzi activity assay (infected L929 cells, beta-galactosidase reporter); assay type: cell-based; settings: for IC50: Trypanosoma cruzi, T. cruzi Tulahuen in L929 cells, 96 h; for Status: T. cruzi, activity status from IC50 and SI
# Experimental: as §1
# The in vitro anti-T. cruzi activity was evaluated on L929 cells (mouse fibroblasts) infected with Tulahuen strain of the parasite expressing the Escherichia coli β-galactosidase as reporter gene according to the method described previously. Briefly, four thousand L929 cells were added to each well of a 96-well microtiter plate. After an overnight incubation, a 10 fold excess of trypomastigotes were added to the cells, incubated for 2 h, then replaced with 200 μL of fresh medium and incubated for additional 48 h to establish the infection. For IC50 determination, the cells were exposed to each synthesized compound at serial decreasing dilutions and the plate was incubated for 96 h. Afterwards, 50 μL of 500 μM chlorophenol red beta-D-galactopyranoside (CPRG) in 0.5% Nonidet P40 was added to each well, and the plate incubated for 16 to 20 h, after which the absorbance at 570 nm was measured. Controls with uninfected cells, untreated infected cells, infected cells treated with benznidazole at 3.8 μM (positive control) or 1% DMSO were used. The results were expressed as the percentage of T. cruzi growth inhibition in compound tested cells as compared to the infected cells and untreated cells. The IC50 values were calculated by linear interpolation. Quadruplicates were run in the same plate, and the experiments were repeated at least once.
# as §2
# [5] = tested on: P. falciparum chloroquine-resistant and mefloquine-sensitive W2 clone; test: Anti-Plasmodium falciparum activity assay (SYBR, erythrocytic asexual stages); assay type: cell-based; settings: for Status: P. falciparum, activity status from IC50 and SI
# Experimental: In vitro assay with P. falciparum culture were performed as described previously. […] The activity was measured using the SYBR assay with the parasite suspension (0.5% parasitemia and 2% hematocrit) with minor modifications. The test compounds, in serial dilutions, were incubated in “U” bottom 96-wells plates. After 48 h at 37 °C, the culture supernatant was removed and replaced by 100 µL of lysis buffer solution [Tris (20 mM; pH 7.5), EDTA (5 mM), saponin (0.008%; wt/vol), and Triton X 100 (0.08%; vol/vol)] followed by addition of 0.2 µL/mL SYBR Safe (Sigma-Aldrich, Carlsbad, CA, USA). The plate content was transferred to a flat bottom plate and incubated in the dark for 30 min. The plate was read in a fluorometer (Synergy H4 Hibrid Reader, Biotek) with excitation at 485 nm and 535 nm of emission. In all tests, the compound activities were expressed by the 50% inhibitory concentration of the parasite growth (IC50) when compared to the drug-free controls and estimated using the curve-fitting software Origin 8.0 (OriginLab Corporation, Northampton, MA, USA).
# [6] = tested on: Plasmodium; set-up: method as in PMID 28223778; settings: cited from earlier work
# [7] = tested on: Plasmodium; set-up: method as in PMID 33446930, PMID 33307212; settings: 30mg/(kg × day), 4-day suppressive test; cited from earlier work
# [8] = tested on: Plasmodium; set-up: method as in PMID 33446930, PMID 33307212; settings: read-out: IC50 plasmodicidal in vitro activity; cited from earlier work
# [9] = tested on: P. falciparum; set-up: method as in PMID 14513908; settings: cited from earlier work
# [10] = tested on: human and monkey cell lines; set-up: method as in PMID 14513908; settings: cited from earlier work
# [11] = Cytotoxicity, neutral red uptake assay on BGM cells; assay type: cell-based; settings: BGM monkey kidney cells
# Experimental: The BGM cells were incubated with 20 µL of the drugs at different concentrations (≤1000 µg/mL) for 24 h in a 5% CO2 at 37 °C. The neutral red uptake assay was used to evaluate the lysosomal integrity and distinguishes live cells from dead by its ability to incorporate the dye. Briefly, to each well was added 0.2 mL medium containing 50 µg/mL of neutral red solution. The plate was incubated for another 3 h at 37 °C to allow for the uptake of the vital dye into the lysosomes of viable uninjured cells. After removal of medium, 200 µL of a mixture of 0.5% formaldehyde-1% CaCl2 was added to the cells and incubated by 5 min. The supernatant was removed and 100 µL of a solution of 1% acetic acid-50% ethanol was added to each well to extract the dye. After homogenization, the optical density of each well of the plate was measured using a 540 nm wavelength on a spectrophotometer. This absorbance has shown a linear relationship with the number of surviving cells. The cell viability was expressed as the percentage of control absorbance obtained from the untreated cells after subtracting the appropriate background.
# [12] = tested on: Plasmodium; set-up: method as in doi:10.1016/j.tetlet.2016.11.071; settings: read-out: IC50 anti-plasmodial activity; cited from earlier work
# [13] = Plasmodium falciparum, W2, 48 h, P. falciparum W2 clone, 48 h, SYBR, read-out: IC50
# [14] = P. falciparum W2 clone, 48 h, SYBR
molecule,measurement,setting,value
O=C1C(c2ccc(O)cc2)N(c2ccccc2)C(=O)CN1c1ccc(Cl)cc1 (stereo not shown) [Compound 14],CC50 at 72 h,[1],611 ± 1 µg/mL
same,Status,[2],ACTIVE
same,IC50,[2],8.3 ± 0.2 µg/mL
O=C1C(c2ccc(Cl)cc2)N(c2ccccc2)C(=O)CN1c1ccc(Cl)cc1 (stereo not shown) [Compound 4],Status,[2],inactive
same,IC50,[2],35.7 ± 0.8 µg/mL
"O=C(Cn1ccnc1[N+](=O)[O-])NCc1ccccc1 [Benznidazole, reference compound]",CC50 at 96 h,[3],540 µg/mL
same,IC50,[4],0.5 ± 0.1 µg/mL
"C[C@@H]1[C@H](O)[C@@H](C)/C=C/C=C/C=C/C=C/C=C/C=C/C=C/[C@H](O[C@@H]2O[C@H](C)[C@@H](O)[C@H](N)[C@@H]2O)C[C@@H]2O[C@](O)(C[C@@H](O)C[C@@H](O)[C@H](O)CC[C@@H](O)C[C@@H](O)CC(=O)O[C@H]1C)C[C@H](O)[C@H]2C(=O)O [Amphotericin B, reference compound]",CC50 at 72 h,[1],367 ± 1 µg/mL
same,IC50,[2],0.228 ± 0.025 µg/mL
COc1ccc(N2CC(=O)N(c3ccc(OC)cc3)C(c3ccccc3)C2=O)cc1 (stereo not shown) [Compound 13],Status,[4],inactive
same,IC50,[4],22.3 ± 1.1 µg/mL
O=C1C(c2ccc(Cl)cc2)N(c2ccc(F)cc2)C(=O)CN1c1ccc(Cl)cc1 (stereo not shown) [Compound 21],CC50 at 96 h,[3],16.8 µg/mL
same,Status,[4],"toxic (selectivity index = CC50/IC50, values < 10 are considered toxic)"
same,IC50,[4],16.1 ± 2 µg/mL
same,Status,[5],inactive
same,IC50,[5]; [13],≥ 50 µg/mL
CC(C)C[C@@H]1NC(=O)[C@@H]2CCCN2C1=O [Gancidin W],in vivo anti-malarial activity,[6],"active, low-toxic"
CCc1ccc(C2C(=O)N(c3ccc(Cl)cc3)CC(=O)N2c2ccccc2)cc1 (stereo not shown) [Compound 2],Status,[2],inactive
same,IC50,[2],> 100 µg/mL
COc1ccc(C2C(=O)N(c3ccc(Cl)cc3)CC(=O)N2c2ccccc2)cc1Br (stereo not shown) [Compound 8],CC50 at 96 h,[3],> 400 µg/mL
same,Status,[4],ACTIVE
same,IC50,[4],7.3 ± 1.5 µg/mL
CO[C@]1(CC(C)C)NC(=O)[C@](O)(Cc2ccccc2)NC1=O [Diatretol],growth inhibition of the parasite in vivo,[7],more than 50%
same,IC50,[8],0.6 µM
CN1C(=O)C2(CO)NC(=O)C1(Cc1ccccc1)SSSS2 (stereo not shown) [1-demethylhyalodendrin tetrasulfide],IC50,[9],6.7 µM
same,cytotoxicity,[10],high cytotoxicity
O=C1C(c2ccccc2F)N(c2ccc(Cl)cc2)C(=O)CN1c1ccc(Cl)cc1 (stereo not shown) [Compound 17],CC50 at 24 h,[11],139 ± 18.7 µg/mL
same,IC50,[5]; [14],9.5 ± 2.1 µg/mL
same,Status,[5],ACTIVE
same,IC50,[5]; [13],< 10 µg/mL
O=C1C(c2cccc(Cl)c2)N(c2ccccc2)C(=O)CN1c1ccc(Cl)cc1 (stereo not shown) [Compound 10],Status,[5],inactive
same,IC50,[5]; [13],28.1 ± 0.3 µg/mL
COc1ccc(OC)c(C2C(=O)N(c3ccc(Cl)cc3)CC(=O)N2c2ccccc2)c1 (stereo not shown) [Compound 9],Status,[2],inactive
same,IC50,[2],50.8 ± 1.1 µg/mL
CN(C)c1ccc(C2C(=O)N(c3ccc(Cl)cc3)CC(=O)N2c2ccccc2)cc1 (stereo not shown) [Compound 3],Status,[2],inactive
same,IC50,[2],49.1 ± 1.6 µg/mL
O=C1C(c2ccc(F)cc2)N(c2ccccc2)C(=O)CN1c1ccc(Cl)cc1 (stereo not shown) [Compound 11],Status,[2],inactive
same,IC50,[2],38.2 ± 1.8 µg/mL
O=C1C(c2ccc(O)c(Br)c2)N(c2ccccc2)C(=O)CN1c1ccc(Cl)cc1 (stereo not shown) [Compound 15],CC50 at 24 h,[11],18.5 ± 3.4 µg/mL
same,CC50 at 96 h,[3],81.8 µg/mL
same,Status,[4],"toxic (selectivity index = CC50/IC50, values < 10 are considered toxic)"
same,IC50,[4],11.2 ± 6 µg/mL
same,Status,[5],"toxic (selectivity index = CC50/IC50, values < 10 are considered toxic)"
same,IC50,[5]; [13],14.9 ± 0.7 µg/mL
O=C1C(c2ccccc2F)N(c2ccccc2)C(=O)CN1c1ccc(Cl)cc1 (stereo not shown) [Compound 5],CC50 at 24 h,[11],≤ 3.1 µg/mL
same,CC50 at 96 h,[3],29.2 µg/mL
same,Status,[4],"toxic (selectivity index = CC50/IC50, values < 10 are considered toxic)"
same,IC50,[4],9.3 ± 0.1 µg/mL
same,IC50,[5]; [13],15.6 ± 2.6 µg/mL
"CCN(CC)CCCC(C)Nc1ccnc2cc(Cl)ccc12 (stereo not shown) [Chloroquine, reference compound]",IC50,"[5]; Plasmodium falciparum, W2, 48 h",0.174 ± 0.055 µg/mL
CC(=O)Nc1ccc(C2C(=O)N(c3ccc(Cl)cc3)CC(=O)N2c2ccccc2)cc1 (stereo not shown) [Compound 7],CC50 at 72 h,[1],679 ± 1 µg/mL
same,Status,[2],part. ACTIVE (20 > IC50 > 10 µg/mL partially active)
same,IC50,[2],16 ± 1 µg/mL
O=C1C(c2ccccc2F)N(c2ccc(F)cc2)C(=O)CN1c1ccc(Cl)cc1 (stereo not shown) [Compound 20],CC50 at 24 h,[11],9.4 ± 5.1 µg/mL
same,CC50 at 96 h,[3],32.1 µg/mL
same,Status,[4],"toxic (selectivity index = CC50/IC50, values < 10 are considered toxic)"
same,IC50,[4],15.4 ± 3 µg/mL
same,IC50,[5]; [13],17.6 ± 1.3 µg/mL
O=C1C(c2c(F)cccc2Cl)N(c2ccccc2)C(=O)CN1c1ccc(Cl)cc1 (stereo not shown) [Compound 22],CC50 at 96 h,[3],> 400 µg/mL
same,Status,[4],ACTIVE
same,IC50,[4],7.2 ± 0.9 µg/mL
O=C1C(c2ccccc2F)N(c2ccc(Br)cc2)C(=O)CN1c1ccc(Cl)cc1 (stereo not shown) [Compound 19],CC50 at 24 h,[11],110 ± 11.3 µg/mL
same,IC50,[5]; [14],5.4 ± 1.7 µg/mL
same,Status,[5],ACTIVE
same,IC50,[5]; [13],< 10 µg/mL
same,IC50,"[5]; Plasmodium falciparum, W2, P. falciparum, corresponds to 5.4 µg/mL, read-out: IC50 (converted to µM)",12.6 µM
Naseseazine C,IC50,[12],3.5 µM
